Assay results reported in patent publication US10576078B2 (Council of Scientific & Industrial Research, priority 2017, dated 2020).

Experiments:
Type in all cases: cell-based, Human
[1] = tested on: K562 cells; assay: Megakaryocytic differentiation in K562 cells (May-Grünwald-Giemsa staining, CD61/CD41 flow cytometry)
Experimental: K562 cells were treated with CFZ for 120 h and May-Grünwald-Giemsa staining followed by light microscopy was used to assess cellular morphology. […] PMA was used as appositive control. Representative photomicrographs from two independent experiments (8 fields per treatment group) are shown.
FIG. 3B-3C in particular show CFZ induces megakaryocytic surface markers CD61 (early) and CD41 (late) in K562 cells. K562 cells were treated as indicated for 72 h (Phorbol myristate acetate (PMA) was used as positive control) and then were stained with IgG isotype control or CD61 (B) & CD41 (C) IgG antibodies and were analyzed by flowcytometry (n=3). ***p<0.0001. PMA was used as a positive control.
May-Grünwald Giemsa Staining: To assess the changes in nuclear morphology, cells treated with vehicle (0.1% DMSO), CFZ (indicated concentrations in FIG. 3A) or PMA (positive control; 10 ng/ml) for 120 h (FIG. 3A). Cells were then washed with phosphate buffer saline (PBS) and were attached to glass slides by cytospin. These slides were stained with Giemsa and May-Grünwald solution (Sigma) as per manufacturer's instruction. Cells were then visualized by microscopy.
Differentiation analyses by flow cytometry: K562 (FIG. 3B-C) or primary CP-CML cells (FIG. 3D-E) were treated with vehicle, CFZ and PMA as indicated in the respective figures and figure descriptions for 72 hrs. Cells were then harvested, washed, and centrifuged, resuspended in 100 μl PBS and were stained with CD41-FITC or CD61-PE antibodies for 30 min at room temperature (in dark). After incubation, the cells were washed and resuspended in 300 μl PBS and were analyzed on a FACSCalibur flow cytometer.

[2] = tested on: K562 cells; assay: TUNEL assay in K562 cells; details: CFZ 5 μM, 48 h
Experimental: K562 cells were treated with CFZ for 48 h and TUNEL staining was performed followed by fluorescent microscopy. Images are representative of two independent experiments (8 fields per group).

[3] = tested on: stat5; assay: Immunoblotting of stat5 expression and phosphorylation in K562 cells
Experimental: K562 cells were treated as indicated for 72 h and stat5 expression was assessed by immunoblotting. Pioglitazone (Pio) was used as a positive control. Data is one representative of 3 independent experiments.
K562 cells were treated as indicated for 30 min and stat5 phosphorylation at Y694 or CrkL phosphorylation at Y207 were assessed by immunoblotting. Total stat5 or β-actin expression was assessed to ensure equal loading. Pio was used as a negative control and IMT was used as a positive control. Data is one representative of 3 independent experiments.
K562 cells were cultured in 6 well plates and treated as indicated in figures or descriptions of FIG. 1E, FIG. 1G and FIG. 2D-E. Cells were then homogenized in lysis buffer containing 50 mM Tris-HCl, pH 7.5, 150 mM NaCl, 1% NP40, 5 mM EDTA, 1 mM DTT, protease and phosphatase inhibitor cocktails (Sigma) and incubated on ice for 30 min followed by 5 cycles of freeze-thaw. Samples were then centrifuged at 14000 rpm at 4° C. for 30 min. Supernatants were then quantified by Bichinchonic acid (Sigma)-based protein estimation. Equal amount of proteins were solubilized in Laemmli buffer, and were resolved by 10%-12% SDS PAGE and transferred onto PVDF membranes (Millipore; Billerica, Mass.). […] Immunoreactivity was detected using a chemiluminescent HRP Substrate (Millipore) in a LAS 4010 Chemi-doc Imager (GE Healthcare, Little Chalfont, UK). […]

[4] = tested on: aldehyde dehydrogenase (ALDH) activity in CP-CML cells; assay: Aldefluor assay of aldehyde dehydrogenase activity; details: imatinib-resistant CP-CML cells, n=6, 5 μM, 48 h
Experimental: CP-CML cells from imatinib-resistant patients (n=6) were treated with CFZ or salinomycin (5 μM; 48 h) and aldehyde dehydrogenase activity in these cells were assessed using an ALDEFLUOR kit (Stemcell technologies). ***p<0.0001.
CP-CML cells isolated from imatinib-resistant patients were treated with vehicle (V; 0.1% DMSO), CFZ or salinomycin (both 5 μM) for 48 h (FIG. 2C). Aldehyde dehydrogenase activity in CP-CML cells was assessed using an Aldefluor kit ([…] technologies) by flow cytometry (FACSCalibur).

CC(C)/N=c1\cc2n(-c3ccc(Cl)cc3)c3ccccc3nc-2cc1Nc1ccc(Cl)cc1 [CFZ, Clofazimine]
megakaryocytic differentiation phenotype ([1]; 1 μM, 120 h, May-Grünwald-Giemsa staining): induced
megakaryocytic surface marker CD41 ([1]; 72 h): increased
megakaryocytic surface marker CD61 ([1]; 72 h): increased
apoptosis as determined by TUNEL assay [2]: induces apoptosis
stat5 phosphorylation ([3]; 30 min, Y694): without altering
stat5 protein expression ([3]; 72 h, FIG. 2D): suppressed
aldehyde dehydrogenase (ALDH) activity [4]: remarkably decreased
